From patent publication US11241441B2, “Formulations of lixivaptan for the treatment of polycystic disease” (PALLADIO BIOSCIENCES, INC., priority 2017, dated 2022)

What was measured:
[1] = Clinical observation of ALT elevations, 400 mg BID for 7 days; assay type: in vivo, human; details: 67 individuals
PCK rats = assay: In vivo study of the effects of lixivaptan on PCK rats; design: species or system rat; details: for % kidney weight/body weight: both genders
Description: A study was performed that examined the effect of lixivaptan (0.5% or 1% w/w lixivaptan in ground rodent chow) on bodyweight, kidney weight, kidney cAMP, urine output, and serum electrolyte concentration in PCK rats, an orthologous animal model of Autosomal Recessive PKD that develops a phenotype reminiscent of ADPKD.
Experimental animals and study design. PCK rats were divided into control and treatment groups at four weeks of age (n=59, ˜10 animals per treatment group and gender). Lixivaptan was dissolved in DMSO and added to ground rodent chow (Regrind Labdiet 5053) at 0.5% or 1.0% concentration (w/w) by homogenous mixing, whereas control animals received the same diet without lixivaptan. Animals were exposed to control- or lixivaptan-diet for eight weeks and were sacrificed at twelve weeks of age.
Experimental Protocol. […] At the end of the dosing period, the animals were weighed and anesthetized with ketamine 90 mg/kg and xylazine 10 mg/kg, IP. Blood samples were obtained by cardiac puncture for determination of plasma electrolytes, creatinine and plasma urea levels. The right kidney and part of the liver were placed into pre-weighed vials containing 10% formaldehyde in phosphate buffer (pH 7.4). The tissues were embedded in paraffin for histological studies. The left kidneys were immediately frozen in liquid nitrogen for determination of cAMP.
Statistical Analysis. Comparisons between groups were analyzed using one-way or two-way analysis of variance (ANOVA) with least significant difference comparisons of the means or student's t-test as appropriate. Data were expressed as means±SD.

vasopressin V2 receptor = molecular target: T1, vasopressin V2 receptor (Homo sapiens, UniProt P30518); assay: Uosm in clinical studies in healthy subjects and various patient populations; assay type: in vivo; details: healthy subjects, hyponatremia patients, ESRD patients
T1 construct: Lixivaptan antagonizes the effects of vasopressin that are mediated by the V2 receptor; from tissue; host or cells: living human subjects (in vivo clinical studies); the receptor is the subjects' own and no tissue was isolated
T1 sequence (P30518 whole entry): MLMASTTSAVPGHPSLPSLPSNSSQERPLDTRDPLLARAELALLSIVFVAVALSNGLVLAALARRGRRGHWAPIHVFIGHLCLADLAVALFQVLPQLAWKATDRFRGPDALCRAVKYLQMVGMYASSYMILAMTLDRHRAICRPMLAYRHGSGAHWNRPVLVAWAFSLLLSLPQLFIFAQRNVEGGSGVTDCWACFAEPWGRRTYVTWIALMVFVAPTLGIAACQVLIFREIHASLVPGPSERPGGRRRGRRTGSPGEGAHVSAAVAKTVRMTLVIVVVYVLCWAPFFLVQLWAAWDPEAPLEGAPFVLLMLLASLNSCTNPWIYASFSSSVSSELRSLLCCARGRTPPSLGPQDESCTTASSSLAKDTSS
Description: (§1) Lixivaptan in healthy volunteers was tested in a randomized, double-blind, placebo-controlled, ascending multiple-dose, safety and tolerance clinical study in 98 healthy male subjects.
Subjects with Syndrome of Inappropriate Anti-Diuretic Hormone (SIADH) secretion were tested in a randomized, double-blind, placebo-controlled, ascending single-dose, safety and tolerance study.

V2 receptor = V2 receptor (Homo sapiens, UniProt P30518); assay: Ascending multiple-dose, safety and tolerance study in healthy adult male subjects
V2 receptor, sequence (P30518 whole entry): as above
Description: as §1

[2] = PCK rats, 0.5% lixivaptan, compared to control
[3] = PCK rats, 0.5% lixivaptan, compared to control, p=0.08

Cc1ccc(F)cc1C(=O)Nc1ccc(C(=O)N2Cc3cccn3Cc3ccccc32)c(Cl)c1 [Lixivaptan, 5-fluoro-2-methyl-N-[4-(5H-pyrrolo[2,1-C] [1,4]benzodiazepin-10(11H)-ylcarbonyl)-3-chlorophenyl]benzamide]
ALT elevations in treated individuals [1]: no ALT elevations
24 hr urine week 7 (PCK rats; PCK rats F, 0.5% Lixivaptan): 33.5 ± 8.6 mL
24 hr urine week 10 (PCK rats; PCK rats F, 0.5% Lixivaptan): 47.7 ± 16.8 mL
% Kidney/Body Weight (PCK rats; PCK rats F, 0.5% Lixivaptan): 1.11 ± 0.10 %
% Liver/Body Weight (PCK rats; PCK rats F, 0.5% Lixivaptan): 5.72 ± 0.42%
Kidney Cyst Score (PCK rats; PCK rats F, 0.5% Lixivaptan): 7.1 ± 4.2 %
Kidney Fibrosis Score (PCK rats; PCK rats F, 0.5% Lixivaptan): 2.0 ± 1.1%
Liver Cyst Score (PCK rats; PCK rats F, 0.5% Lixivaptan): 3.7 ± 0.8%
Liver Fibrois Score (PCK rats; PCK rats F, 0.5% Lixivaptan): 2.7 ± 0.3%
Liver Weight (PCK rats; PCK rats F, 0.5% Lixivaptan): 14.5 ± 1.6 g
Plasma Creatinine (PCK rats; PCK rats F, 0.5% Lixivaptan): 0.64 ± 0.08 mg/dL
Plasma Sodium (PCK rats; PCK rats F, 0.5% Lixivaptan): 145 ± 2 mEq/L
Plasma Urea (PCK rats; PCK rats F, 0.5% Lixivaptan): 32.3 ± 3.9 mg/dL
Total Kidney Weight (PCK rats; PCK rats F, 0.5% Lixivaptan): 2.82 ± 0.33 g
24 hr urine week 7 (PCK rats; PCK rats F, 1.0% Lixivaptan): 39.7 ± 14.2 mL
24 hr urine week 10 (PCK rats; PCK rats F, 1.0% Lixivaptan): 54.8 ± 19.3 mL
% Kidney/Body Weight (PCK rats; PCK rats F, 1.0% Lixivaptan): 1.75 ± 0.99%
% Liver/Body Weight (PCK rats; PCK rats F, 1.0% Lixivaptan): 7.11 ± 2.61%
Kidney Cyst Score (PCK rats; PCK rats F, 1.0% Lixivaptan): 11.9 ± 3.1%
Kidney Fibrosis Score (PCK rats; PCK rats F, 1.0% Lixivaptan): 2.1 ± 0.8%
Liver Cyst Score (PCK rats; PCK rats F, 1.0% Lixivaptan): 6.2 ± 2.7%
Liver Fibrois Score (PCK rats; PCK rats F, 1.0% Lixivaptan): 4.1 ± 1.4%
Liver Weight (PCK rats; PCK rats F, 1.0% Lixivaptan): 16.8 ± 6.7 g
Plasma Creatinine (PCK rats; PCK rats F, 1.0% Lixivaptan): 0.68 ± 0.06 mg/dL
Plasma Sodium (PCK rats; PCK rats F, 1.0% Lixivaptan): 143 ± 3 mEq/L
Plasma Urea (PCK rats; PCK rats F, 1.0% Lixivaptan): 37.7 ± 10.5 mg/dL
Total Kidney Weight (PCK rats; PCK rats F, 1.0% Lixivaptan): 4.14 ± 2.46 g
24 hr urine week 7 (PCK rats; PCK rats M, 0.5% Lixivaptan): 45.5 ± 9.1 mL
24 hr urine week 10 (PCK rats; PCK rats M, 0.5% Lixivaptan): 53.5 ± 14.3 mL
% Kidney/Body Weight (PCK rats; PCK rats M, 0.5% Lixivaptan): 1.37 ± 0.45%
% Liver/Body Weight (PCK rats; PCK rats M, 0.5% Lixivaptan): 5.49 ± 0.44%
Kidney Cyst Score (PCK rats; PCK rats M, 0.5% Lixivaptan): 7.7 ± 1.7 %
Kidney Fibrosis Score (PCK rats; PCK rats M, 0.5% Lixivaptan): 1.8 ± 1.2%
Liver Cyst Score (PCK rats; PCK rats M, 0.5% Lixivaptan): 3.2 ± 1.6%
Liver Fibrois Score (PCK rats; PCK rats M, 0.5% Lixivaptan): 3.1 ± 1.1%
Liver Weight (PCK rats; PCK rats M, 0.5% Lixivaptan): 23.8 ± 2.3 g
Plasma Creatinine (PCK rats; PCK rats M, 0.5% Lixivaptan): 0.63 ± 0.07 mg/dL
Plasma Sodium (PCK rats; PCK rats M, 0.5% Lixivaptan): 147 ± 4 mEq/L
Plasma Urea (PCK rats; PCK rats M, 0.5% Lixivaptan): 32.2 ± 5.8 mg/dL
Total Kidney Weight (PCK rats; PCK rats M, 0.5% Lixivaptan): 5.97 ± 2.04 g
24 hr urine week 7 (PCK rats; PCK rats M, 1.0% Lixivaptan): 53.9 ± 7.4 mL
24 hr urine week 10 (PCK rats; PCK rats M, 1.0% Lixivaptan): 63.7 ± 10.1 mL
% Kidney/Body Weight (PCK rats; PCK rats M, 1.0% Lixivaptan): 1.47 ± 0.46%
% Liver/Body Weight (PCK rats; PCK rats M, 1.0% Lixivaptan): 5.60 ± 0.61%
Kidney Cyst Score (PCK rats; PCK rats M, 1.0% Lixivaptan): 12.0 ± 3.7 %
Kidney Fibrosis Score (PCK rats; PCK rats M, 1.0% Lixivaptan): 2.9 ± 1.3%
Liver Cyst Score (PCK rats; PCK rats M, 1.0% Lixivaptan): 5.8 ± 1.3%
Liver Fibrois Score (PCK rats; PCK rats M, 1.0% Lixivaptan): 4.2 ± 2.0%
Liver Weight (PCK rats; PCK rats M, 1.0% Lixivaptan): 22.5 ± 2.7 g
Plasma Creatinine (PCK rats; PCK rats M, 1.0% Lixivaptan): 0.67 ± 0.04 mg/dL
Plasma Sodium (PCK rats; PCK rats M, 1.0% Lixivaptan): 147 ± 1 mEq/L
Plasma Urea (PCK rats; PCK rats M, 1.0% Lixivaptan): 32.3 ± 5.0 mg/dL
Total Kidney Weight (PCK rats; PCK rats M, 1.0% Lixivaptan): 5.92 ± 1.95 g
improvement in cystic phenotype compared to control (PCK rats; PCK rats, 0.5% lixivaptan): 54%
increase in serum sodium (PCK rats; PCK rats, 0.5% lixivaptan): 1.6%
reduction in kidney weight as a percentage of body weight (relative kidney size) (PCK rats; [2]): 26%
reduction in liver cyst score (PCK rats; [2]): 39%
reduction in liver fibrosis score (PCK rats; [3]): 20.6%
reduction in ratio of liver weight vs. body weight (PCK rats; [3]): 5.2%
beneficial effect on kidney fibrosis score (PCK rats; PCK rats, 0.5% lixivaptan, p=0.12): 30%
increase in 24 h urine output (PCK rats; PCK rats, 0.5% lixivaptan, study week 3 (rats at 7 weeks of age)): 175%
increase in 24 h urine output (PCK rats; PCK rats, 0.5% lixivaptan, study week 6 (rats at 10 weeks of age)): 189%
effect on liver pathology (PCK rats; PCK rats, 1.0% lixivaptan): did not separate from control
improvement in cystic phenotype compared to control (PCK rats; PCK rats, 1.0% lixivaptan): 25%
increase in urine output (PCK rats; PCK rats, 1.0% lixivaptan, Study week 3): 223%
increase in urine output (PCK rats; PCK rats, 1.0% lixivaptan, Study week 6): 237%
% kidney weight/body weight (PCK rats; PCK rats, 0.5% lixivaptan): 1.2%
% kidney weight/body weight (PCK rats; PCK rats, 1.0% lixivaptan, all animals): 1.6%
% kidney weight/body weight (PCK rats; PCK rats, 1.0% lixivaptan, three outliers removed): 1.3%
reduction in serum creatinine (PCK rats; PCK rats, compared to control): 13.2%
urinary osmolality suppressed to levels below target threshold (vasopressin V2 receptor): < 300 mOsm/kg
maintenance of urine osmolality below 300 mOsm/kg (V2 receptor; 300 mg to 800 mg doses (FIG. 3)): up to 12 hours
suppression of Uosm to values <300 mOsm/kg (V2 receptor; 800 mg dose only): up to 24 hours
time Uosm remained below iso-osmolar point (V2 receptor; 100-mg dose): 4 h
time of minimal values of Uosm after drug administration (V2 receptor; across all dose groups): ≤ 2 h
serum osmolality (V2 receptor; all subjects given lixivaptan): significant dose-related increases
safety and tolerability (V2 receptor; daily oral doses up to 800 mg, twice daily up to 400 mg, 14 consecutive days, healthy men): safe and well tolerated
minimal values of Uosm (V2 receptor; doses of 25 mg and higher): < 300 mOsm/L
urine output, 0-to-24-hour collection interval (V2 receptor; doses of 200 mg or larger, across 14 days, vs placebo): significantly greater urine output than placebo
urine output, first 4 hours after drug administration (V2 receptor; single dose of 25 mg or higher, vs placebo): significantly greater urine output than placebo
Uvol (0-to-4-hours) (V2 receptor; single doses of 25 mg and higher (day 1)): doubling
